From patent US11931424B2, “Combination MCL-1 inhibitors with anti-body drug conjugates” (Gilead Sciences, Inc., priority 2021, dated 2024)

Test system: panel of breast cancer cell lines
Assay: Compound A with targeted agents and chemotherapies, 72-hour in vitro proliferation assays
Assay type: cell-based
Conditions: 72-hour proliferation
[1] = AU565 cell line, compound A × partner
[2] = BT-20 cell line, compound A × partner
[3] = CAL-51 cell line, compound A × partner
[4] = CAL-85-1 cell line, compound A × partner
[5] = CAL-120 cell line, compound A × partner
[6] = CAL-148 cell line, compound A × partner
[7] = CAMA-1 cell line, compound A × partner
[8] = DU-4475 cell line, compound A × partner
[9] = EVSA-T cell line, compound A × partner

Compound: CN(C)C(=O)c1cc2cnc(Nc3ccc(N4CCNCC4)cn3)nc2n1C1CCCC1 [LEE011]
- Best CI [1]: 1.01
- Bliss Volume [1]: −1.41
- HSA volume [1]: −6.50
- Loewe Volume [1]: −4.57
- Synergy Score [1]: 1.58
- Best CI [2]: 0.78
- Bliss Volume [2]: −2.26
- HSA volume [2]: −1.79
- Loewe Volume [2]: −2.17
- Synergy Score [2]: 2.30
- Best CI [3]: 0.77
- Bliss Volume [3]: −1.68
- HSA volume [3]: −1.56
- Loewe Volume [3]: −1.27
- Synergy Score [3]: 0.34
- Best CI [4]: 0.64
- Bliss Volume [4]: −5.58
- HSA volume [4]: −9.15
- Loewe Volume [4]: −7.95
- Synergy Score [4]: 0.23
- Best CI [5]: 0.62
- Bliss Volume [5]: −1.14
- HSA volume [5]: −5.68
- Loewe Volume [5]: −5.28
- Synergy Score [5]: 0.15
- Best CI [6]: 0.86
- Bliss Volume [6]: −4.27
- HSA volume [6]: −5.99
- Loewe Volume [6]: −4.10
- Synergy Score [6]: 0.81
- Best CI [7]: 0.73
- Bliss Volume [7]: −3.85
- Loewe Volume [7]: −6.51
- Synergy Score [7]: 1.09
- Best CI [8]: 0.47
- Bliss Volume [8]: 1.64
- HSA volume [8]: 0.20
- Loewe Volume [8]: 1.04
- Synergy Score [8]: 0.98
- Best CI [9]: 0.63
- Bliss Volume [9]: −0.43
- HSA volume [9]: −2.18
- Synergy Score [9]: 0.34
- Best CI (HCC38, compound A × partner): 0.44
- Bliss Volume (HCC38, compound A × partner): −4.85
- HSA volume (HCC38, compound A × partner): −8.61
- Loewe Volume (HCC38, compound A × partner): −9.77
- Synergy Score (HCC38, compound A × partner): 1.12
- Best CI (HCC70, compound A × partner): 0.93
- Bliss Volume (HCC70, compound A × partner): −0.15
- HSA volume (HCC70, compound A × partner): 0.16
- Loewe Volume (HCC70, compound A × partner): 0.49
- Synergy Score (HCC70, compound A × partner): 6.12
- Bliss Volume (HCC1143, compound A × partner): −3.25
- HSA volume (HCC1143, compound A × partner): −7.75
- Loewe Volume (HCC1143, compound A × partner): −9.95
- Synergy Score (HCC1143, compound A × partner): 1.30
- Best CI (HCC1569, compound A × partner): 0.47
- Bliss Volume (HCC1569, compound A × partner): 5.70
- HSA volume (HCC1569, compound A × partner): 1.89
- Loewe Volume (HCC1569, compound A × partner): 5.08
- Synergy Score (HCC1569, compound A × partner): 3.87
- Best CI (HCC1806, compound A × partner): 0.56
- Bliss Volume (HCC1806, compound A × partner): −3.98
- HSA volume (HCC1806, compound A × partner): −8.72
- Loewe Volume (HCC1806, compound A × partner): −4.05
- Synergy Score (HCC1806, compound A × partner): 0.65
- Best CI (HCC1937, compound A × partner): 0.74
- Bliss Volume (HCC1937, compound A × partner): 2.31
- HSA volume (HCC1937, compound A × partner): −2.66
- Loewe Volume (HCC1937, compound A × partner): 1.04
- Synergy Score (HCC1937, compound A × partner): 2.13
- Best CI (HCC1954, compound A × partner): 0.72
- Bliss Volume (HCC1954, compound A × partner): −0.75
- Loewe Volume (HCC1954, compound A × partner): −1.17
- Synergy Score (HCC1954, compound A × partner): 4.48
- Best CI (HCC2218, compound A × partner): 0.73
- Bliss Volume (HCC2218, compound A × partner): −5.40
- HSA volume (HCC2218, compound A × partner): −4.99
- Loewe Volume (HCC2218, compound A × partner): −5.90
- Synergy Score (HCC2218, compound A × partner): 1.69
- Best CI (HDQ-P1, compound A × partner): 0.04
- Bliss Volume (HDQ-P1, compound A × partner): −2.80
- HSA volume (HDQ-P1, compound A × partner): −6.22
- Loewe Volume (HDQ-P1, compound A × partner): −9.02
- Synergy Score (HDQ-P1, compound A × partner): 0.15
- Best CI (HMC-1-8, compound A × partner): 0.81
- Bliss Volume (HMC-1-8, compound A × partner): 9.82
- HSA volume (HMC-1-8, compound A × partner): 5.13
- Loewe Volume (HMC-1-8, compound A × partner): 5.78
- Synergy Score (HMC-1-8, compound A × partner): 9.01
- Best CI (JIMT-1, compound A × partner): 0.00
- Bliss Volume (JIMT-1, compound A × partner): 0.29
- HSA volume (JIMT-1, compound A × partner): −2.46
- Loewe Volume (JIMT-1, compound A × partner): −4.06
- Synergy Score (JIMT-1, compound A × partner): 0.28
- Best CI (KPL-1, compound A × partner): 0.65
- Bliss Volume (KPL-1, compound A × partner): 0.36
- HSA volume (KPL-1, compound A × partner): −0.31
- Synergy Score (KPL-1, compound A × partner): 1.43

Compound: CS(=O)(=O)CCNCc1ccc(-c2ccc3ncnc(Nc4ccc(OCc5cccc(F)c5)c(Cl)c4)c3c2)o1 [Lapatinib Ditosylate]
- Best CI [1]: 0.44
- Best CI [2]: 0.18
- Best CI (BT-474 cell line, compound A × partner): 0.02
- Best CI (BT-549 cell line, compound A × partner): 0.45
- Best CI [3]: 1.14
- Best CI [4]: 0.58
- Best CI [5]: 1.36
- Best CI [6]: 0.38
- Best CI [7]: 0.90
- Best CI [8]: 0.65
- Best CI [9]: 0.77
- Best CI (HCC38, compound A × partner): 0.87
- Best CI (HCC70, compound A × partner): 0.35
- Best CI (HCC1143, compound A × partner): 0.54
- Best CI (HCC1569, compound A × partner): 0.53
- Best CI (HCC1806, compound A × partner): 0.74
- Best CI (HCC1937, compound A × partner): 1.22
- Best CI (HCC1954, compound A × partner): 0.07
- Best CI (HCC2218, compound A × partner): 0.02
- Best CI (HDQ-P1, compound A × partner): 0.87
- Best CI (HMC-1-8, compound A × partner): 0.50
- Best CI (JIMT-1, compound A × partner): 0.29
- Best CI (KPL-1, compound A × partner): 0.65
- Best CI (MCF7 cells, Compound A × partner agent): 0.34
- Best CI (MDA-MB-175-VII cells, Compound A × partner agent): 0.32
- Best CI (MDA-MB-231 cells, Compound A × partner agent): 0.77
- Best CI (MDA-MB-361 cells, Compound A × partner agent): 0.87
- Best CI (MDA-MB-436 cells, Compound A × partner agent): 0.51
- Best CI (MDA-MB-453 cells, Compound A × partner agent): 0.45
- Best CI (MDA-MB-468 cells, Compound A × partner agent): 0.36
- Best CI (SK-BR-3 cells, Compound A × partner agent): 0.15
- Best CI (SUM159PT cells, combination of compound A with the named agent): 1.37
- Best CI (T47D cells, combination of compound A with the named agent): 0.41
- Best CI (ZR-75-1 cells, combination of compound A with the named agent): 0.73
- Best CI (ZR-75-30 cells, combination of compound A with the named agent): 0.31
